Among the data in patent US20110237626A1, “COMPOSITIONS FOR HYGIENIC HAND DISINFECTION AND DISINFECTANT HANDWASHING” (AIR LIQUIDE SANTE (INTERNATIONAL), priority 2005, published 2011) are solubility in water values, retold here.

Take `CCCCC(CC)COCC(O)CO` (stereo not shown) [1-(2-ethylhexyl)glycerol ether, 1-(2-Ethylhexyl)-glycerol ether]: the solubility in water worked out at 0.1 % by weight.
